Measurements taken from US20260108547A1, “LEVERAGING L-FUCOSE-MEDIATED SIGNALING TO INDUCE MONOCYTE-DERIVED DENDRITIC CELL POLARIZATION” (H. LEE MOFFITT CANCER CENTER AND RESEARCH INSTITUTE, INC., priority 2022, published 2026).

Assays:
SW1 tumors [1] = assay: Flow cytometric profiling of tumors and lymph nodes, SW1 tumors in C3H/HeN mice fed ± L-fucose and treated ± FTY720 (Table 1); assay type: in vivo, mouse; conditions: for average # of CD8 stem central memory cells: tumors
Procedure: (§1) Tumors of SW1 or SM1 melanoma cells from […] or C57BL/6 mice, respectively) were digested using 1× tumor digest buffer (0.5 mg/mL Collagenase I, 0.5 mg/mL Collagenase IV, 0.25 mg/mL Hyalyronidase V, 0.1 mg/mL DNAse I in HBSS (Millipore Sigma (St. Louis, MO)). Tumors were homogenized using the Miltenyi MACs dissociator. Red blood cells were lysed using ACK lysis buffer (Life Technologies, (Grand Island, NY)). Tumor homogenate cells were counted using a standard hemocytometer.
(§2) Total TILs were gated first to single cells (based on forward scatter height vs width, followed by side scatter height vs. width). Live cells were gated from the Zombie negative population from the population above. TILs were gated based on splenocyte size from a control spleen. Individual immune subpopulations were sub-gated from the total TIL population using the following staining criteria: CD3^+ for CD3^+ T cells; CD3^+/CD4^+/CD8^− for CD4^+T cells; CD3^+/CD4^−/CD8^+ for CD8^+ T cells, CD11c^+/CD11b^+ for DCs; either NK1.1 (for C57/BL6 mice) or DX5 (for C3H/HeJ) for NK cells; CD11b^+/GR1^+ for MDSC-like cells; and F4/80^+ for macrophages. Single-cell suspensions from tumor and spleen tissue were stained with Live/Dead Zombie NIR (Biolegend, (San Diego, CA)) at 1:1,000 in PBS for 20 min. Cell suspensions were spun down and stained with the following with antibodies at 0.5 μg/ml per antibody: APC anti-mouse CD3, Pacific Blue anti-mouse CD4, BV785 anti-mouse CD8, PerCP anti-mouse CD25, FITC anti-mouse F4/80, PeCy7 anti-mouse CD11c, PE anti-mouse NK1.1 or PE anti-mouse DX5, and PerCP-Cy5.5 anti-mouse CD11b. After staining, the cells were washed and fixed (2% formaldehyde), followed by another wash and flow cytometric analysis. The compensation controls were prepared using 0.5 μg/mL of each antibody with UltraComp eBeads, (ThermoFisher Scientific (Waltham, MA)). All samples were subject to flow cytometric profiling using a LSR Flow Cytometer (BD Biosciences (San Jose, CA)) and analysis as indicated using FlowJo software (BD Biosciences (San Jose, CA)).
For all mouse models, 1×10^6 melanoma cells were injected subcutaneously in the right hind flanks of each mouse. […] This dosage is within ranges for dietary supplementation with L-fucose and other similar dietary sugars (e.g., D-mannose) in other rodent studies. When the tumors reached −2 cm^3, the animals were sacrificed, and the tumors either processed for flow cytometric profiling or for histological analysis as indicated.
Control vs. L-fucose±FTY720 models (FIG. 2): SW1 or SM1 mouse melanoma cells were injected into syngeneic C3H/HeN (or NSG) female or C57BL/6 male mice, respectively. Cells were injected as follows: parental SW1 cells for FIG. 1A; parental SM1 cells for FIG. 1E; SW1 cells stably expressing either empty vector (EV) or mouse fucose kinase (mFuk) for FIG. 1L; and parental SW1 cells for FIG. 1M. FTY720 was administered at 20 μg every 2 days starting on Day 12, just prior to the initiation of LF, until endpoint.

SW1 tumors [2] = assay: Immunofluorescent (AAL) analysis of mouse tumor tissue fucosylation; assay type: in vivo; conditions: oral L-fuc; SW1 model
Procedure: In general, paraffin-embedded FFPE tumor tissue sections (or the TMA slide) were melted at 70° C. for 30 min. The slides were further de-paraffinizeded using xylene and rehydrated in serial alcohol washes. The slides were pressure cooked at 15 PSI for 15 min in a 1×DAKO antigen retrieval buffer (Agilent Technologies (Santa Clara, CA)). The tumor sections were subject to two 5-min standing washes in PBS prior to blocking in 1× Carb-Free Blocking Solution (Vector Labs (Burlingame, CA)) for 2-3h. The slides were next washed twice and incubated with indicated lectin and/or antibodies.
For assessment of mouse tumor fucosylation, FFPE tumor sections were immunostained with FITC-conjugated AAL lectin (0.4 μg/mL, Vector Laboratories (Burlingame, CA)) and rabbit anti-Mart1+rabbit anti-S100 (melanoma marker cocktail). The slides were mounted with Vectashield+DAPI (Vector Laboratories (Burlingame, CA)). Four representative microscopy images per tumor were acquired using a Keyence BZ-X710, and images were process and analyzed using FUI (NIH) as follows: melanoma marker-positive regions were assigned as regions of interest (ROI) in which we measured Integrated density of AAL signal. Integrated densities of control tumors were assigned as 1, and Integrated AAL density values of experimental tumors were divided by control to produce relative fold changes and plotted as column charts.

SW1 tumors [3] = assay: itIC and splenic flow cytometric profiling, SW1 tumor-bearing C3H/HeN mice; assay type: in vivo, mouse; conditions: oral L-fuc; SW1 model
Procedure: as §1, §2

HLA-DRB1 = assay: Flow cytometric assessment of cell surface fucosylation and HLA-DRB1 in melanoma cells; assay type: cell-based, human; conditions: 250 μM, 72 h; flow cytometry
Procedure: (§3) Indicated cells were treated for 72 h with DMSO, 250 μM fucosyltransferase inhibitor (FUTi) (Millipore Sigma (St. Louis, MO)), or 250 μM of L-fucose (Biosynth (Oak Terrace, IL)). After 72 h, cells were stained with 0.1 μM PKH26 (Millipore Sigma (St. Louis, MO)) prior to fixation in 4% formaldehyde solution. The cells were stained with anti-HLA-DRB1 and fluorescein AAL, or anti-human or anti-mouse PD-L1 overnight. The following day the cells were washed 3 times prior to adding AlexaFluor 594 donkey anti-rabbit. Cells were washed 3 times and then subject to flow cytometric analyses using a FACSCalibur (BD Biosciences (San Jose, CA)). Samples were analyzed using FlowJo analysis software (BD Biosciences (San Jose, CA)). Median values of DRB1 and AAL were normalized to PKH26 values and statistical analysis was performed using GraphPad Prism.

PD-L1 = assay: Flow cytometric assessment of cell surface PD-L1, mouse melanoma cells (SW1, SM1); assay type: cell-based
Procedure: as §3

C[C@H](O)[C@@H](O)[C@@H](O)[C@H](O)C=O [L-fucose]
average # of CD8 stem central memory cells (SW1 tumors [1]; Day 28): 0.00 per 10^6 cells | average # of CD8 stem central memory cells (SW1 tumors [1]; Day 42): 0.00 per 10^6 cells | intratumoral CD4+T central and effector memory subpopulations (SW1 tumors [1]; SW1 model ± FTY720): increases | cytotoxic CD4+T cells (SW1 tumors [1]; midpoint (Day 28)): transiently but significantly increased | intratumoral monocyte-derived DCs (moDCs) and lymph node cDC2s (SW1 tumors [1]; oral L-fuc, SW1 model): significant, albeit transient, increases | increased tumor fucosylation (SW1 tumors [2]): ~2 fold | CD4+ and CD8+ T cells, most increased subpopulation of total itICs (SW1 tumors [3]): doubled | increased total itICs (SW1 tumors [3]): 10-50 fold | splenic lymphocyte profiles (SW1 tumors [3]): without altering splenic lymphocyte profiles | cell surface HLA-DRB1 (HLA-DRB1): increased | cell surface fucosylation (HLA-DRB1): increased | cell surface levels of PD-L1 (PD-L1): does not alter
